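A five-concentration, 48-hour dose response in 96-well plates underlies each endpoint, interpolated linearly between surrounding concentrations. Abbreviation: GI50, concentration required for 50% inhibition of growth. TGI marks complete inhibition of growth.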
Tests used:
Assay in all cases: NCI anticancer screen, dose series, 48 h
SW-620 colon = test system: SW-620 colon
M14 melanoma = test system: M14 melanoma
SK-MEL-5 melanoma = test system: SK-MEL-5 melanoma
HL-60(TB) leukemia = test system: HL-60(TB) leukemia
RPMI-8226 leukemia = test system: RPMI-8226 leukemia
OVCAR-4 ovarian = test system: OVCAR-4 ovarian
DU-145 prostate = test system: DU-145 prostate
SF-268 CNS = test system: SF-268 CNS
EKVX NSCLC = test system: EKVX NSCLC
IGROV1 ovarian = test system: IGROV1 ovarian

Compound	GI50 (SW-620 colon) [µM]	TGI (SW-620 colon) [µM]	GI50 (M14 melanoma) [µM]	TGI (M14 melanoma) [µM]	GI50 (SK-MEL-5 melanoma) [µM]	TGI (SK-MEL-5 melanoma) [µM]	GI50 (HL-60(TB) leukemia) [µM]	TGI (HL-60(TB) leukemia) [µM]	GI50 (RPMI-8226 leukemia) [µM]	TGI (RPMI-8226 leukemia) [µM]	GI50 (OVCAR-4 ovarian) [µM]	TGI (OVCAR-4 ovarian) [µM]	GI50 (DU-145 prostate) [µM]	TGI (DU-145 prostate) [µM]	GI50 (SF-268 CNS) [µM]	TGI (SF-268 CNS) [µM]	GI50 (EKVX NSCLC) [µM]	TGI (EKVX NSCLC) [µM]	GI50 (IGROV1 ovarian) [µM]	TGI (IGROV1 ovarian) [µM]
C=CCC(N[C@@H](CO)c1ccccc1)c1cn(Cc2ccccc2Cl)c(=O)n(Cc2ccccc2Cl)c1=O (stereo partly drawn)	> 100	> 100	> 100	> 100	> 100	> 100	93.2	> 100	55.8	> 100	> 100	> 100	> 100	> 100	> 100	> 100	> 100	> 100		
CC(C)(C)N1CCC1CN (stereo not drawn)	> 100	> 100	> 100	> 100	> 100	> 100	> 100	> 100	> 100	> 100	> 100	> 100	> 100	> 100	> 100	> 100	> 100	> 100	> 100	> 100
CCOC(=O)c1ccc(Nc2sc(C(=O)c3ccc(Br)cc3)c(N)c2C#N)cc1	0.584	> 100	1.27	> 100	1.02	> 100	0.421	> 25.2	2.57	> 72.3		> 100	1.8	> 100	2.56	> 100				> 100
CN(C)c1ccc(/C=C/c2ccnc3c(O)cccc23)cc1	0.397	> 100	0.304	1.58	0.37	3.05	0.292	1.75	0.482	> 100	0.404	> 100	0.626	> 100	0.463	> 100			0.389	> 100
COc1ccc(C(=O)Nc2ncc(Cc3cccc(Cl)c3)s2)cc1OC	0.0567	> 100	0.0371	> 100	0.247	11.1	0.325	> 71	0.474	8.23	3.68	> 100	1.88	> 100	0.882	> 100	0.693	> 100	0.525	> 100
O=C(O)/C=C/C(=O)N1Cc2cc3ccccc3nc2C1		> 100		> 100		> 100		> 100		> 100				> 100		> 100		> 100		> 100
Cc1c(O)c2ccccc2oc1=O		> 100		> 100		> 100		> 100		> 100		> 100		> 100		> 100		> 100		> 100
Cn1cc(C2=C(c3ccccc3[N+](=O)[O-])C(=O)NC2=O)c2ccccc21	3.97	> 20	6.32	> 20.9	2.86	8.06	2.11	13.9	5.93	15.2	4.88	24.5	6.13	> 25	5.64	18			6.9	> 19.5
CCOC(=O)c1ccc2c(c1)Cc1cc([N+](=O)[O-])ccc1-2		> 100		> 100		44.2		> 100		> 100		56		> 100		88		50.6		> 100
COc1c(C)cc(O)cc1C=O		> 100		> 100		> 100		> 100		> 100		> 100				> 100		> 100		> 100
CC(C)N1CC2CN(Cc3ccccc3)CC(C1)C2=O		> 100		> 100				> 100		> 100		> 100		> 100		> 100				> 100
COc1ccccc1NC(=O)C1=C(C)NC(C)=C(C(=O)Nc2ccccc2OC)C1C1=CC=COC1		22.1		22.5		41.9		10.7		50.1		> 100				62.4		> 100		> 100
COC(=O)CCC(NC(=S)N/N=C/c1ccccn1)C(=O)OC (stereo not drawn)		> 100		> 100		> 100		> 100		> 100		> 100				> 100		> 100		> 100
CN1CCC(COc2cnc(-c3cccc(Cn4nc(-c5cccc(C#N)c5)ccc4=O)c3)nc2)CC1	3.55	31.3	1.96	3.64	1.49	2.85	2	4.02	2.64	9.21	2	5.32	4.76	30.5	3.81	16.4	9.45	40	6.8	25.2
CN(C)c1ccc(/C=C/C(=O)[O-])cc1.CN(C)c1ccc(/C=C/C(=O)[O-])cc1.[Cu+2]		> 100		> 100		93.5		> 100		> 100	14.9	> 100				> 100		> 100		> 100
O=[N+]([O-])c1ccc(C2CC(c3ccccc3Cl)=Nc3ccccc3S2)cc1 (stereo not drawn)		4.78		29.4		12.8		6.36		5.14		24.5				18.9		31		29.6

Reference: PubChem BioAssay (NCI)
